According to paper PMC3871185 (ACS medicinal chemistry letters, 2013):
Values after ≈ are worked out from the molar mass of the structure shown. “Also recorded” adds a separate entry of the source.

What was measured:
[1] = system: Burkholderia thailandensis
BpMetAP1 = BpMetAP1 (Burkholderia pseudomallei, UniProt Q63T11)
hMetAP1 = conditions: read-out: hMetAP1 IC50; cited from earlier work
hMetAP2 = conditions: cited from earlier work; for IC50: read-out: hMetAP2 IC50
[2] = system: B. pseudomallei strain Bp340; format: cell-based, Burkholderia pseudomallei
B. pseudomallei 1026b = format: cell-based, Burkholderia pseudomallei
[3] = system: Burkholderia thailandensis; assay: microbe, parasite or virus in culture; conditions: read-out: minimum inhibitory concentration (MIC)
[4] = system: clinical B. pseudomallei isolates; conditions: cited from earlier work
[5] = system: Burkholderia thailandensis; conditions: cited from earlier work
B. pseudomallei = conditions: cited from earlier work

BpMetAP1, sequence (Q63T11 1-271): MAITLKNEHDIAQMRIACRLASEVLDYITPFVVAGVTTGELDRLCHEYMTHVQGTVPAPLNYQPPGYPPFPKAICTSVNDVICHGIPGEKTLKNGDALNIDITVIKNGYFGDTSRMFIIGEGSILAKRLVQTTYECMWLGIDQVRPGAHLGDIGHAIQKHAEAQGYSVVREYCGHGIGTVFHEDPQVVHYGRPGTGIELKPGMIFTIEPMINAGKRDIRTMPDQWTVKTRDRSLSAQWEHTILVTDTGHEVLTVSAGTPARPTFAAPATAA

Structure (SMILES) | growth inhibition of B. thailandensis (in words) [1] | BpMetAP1 inhibition potency (in words) (BpMetAP1) | other results
CN1CCN(Cc2cc([N+](=O)[O-])c3cccnc3c2O)CC1 [compound 15] | potent growth inhibitors; also recorded: inhibition of cell growth; also recorded: nearly complete cell growth inhibition |  | 
O=[N+]([O-])c1cc(CN2CCCCC2)c(O)c2ncccc12 [compound 10] | inactive | decreased potency | 
Cc1ccc(CSc2nnc(N)[nH]2)cc1 [compound 16] |  | low micromolar range | 
O=[N+]([O-])c1cc(CN2CCOCC2)c(O)c2ncccc12 [compound 13] |  | decreased potency | 
Oc1c(CN2CCSCC2)cc(Cl)c2cccnc12 [compound 7] | inhibited cell growth |  | 
Oc1cccc2cccnc12 [compound 3, reference compound] | inhibited cell growth |  | IC50 (hMetAP1): > 15 µM
O=C(O)c1ccc(-c2ccccc2Cl)o1 [compound 22, reference compound] | essentially no ability to inhibit bacterial growth |  | 
Cc1ccc2cccc(O)c2n1 [compound 2, reference compound] | inhibited cell growth | inactive | IC50 (hMetAP2): > 15 µM; IC50 (hMetAP1): > 15 µM
O=S(=O)(O)c1ccc(O)c2ncccc12 [compound 1] |  |  | IC50 (hMetAP2): > 15 µM; IC50 (hMetAP1): > 15 µM
CN(C)Cc1cc([N+](=O)[O-])c2cccnc2c1O [compound 11] | potent growth inhibitors; also recorded: inhibition of cell growth |  | 
O=[N+]([O-])c1ccc(O)c2ncccc12 [compound 9, 5-nitro-8-hydroxyquinoline] | potent growth inhibitors; also recorded: inhibition of cell growth | Met-AP inhibition | activity against human MetAP2 in vitro (hMetAP2): nanomolar range; growth inhibition of B. pseudomallei Bp340 [2]: complete growth inhibition; inhibition of B. pseudomallei 1026b (B. pseudomallei 1026b): no difference in inhibition compared to Bp340; MIC [3]: ~6 µg/mL (≈ 31.6 µM); IC50 (hMetAP1): > 15 µM
O=C(O)c1ccc(-c2cc(Cl)ccc2Cl)o1 [compound 23, reference compound] | essentially no ability to inhibit bacterial growth |  | 
Nc1nnc(SCc2ccc(Cl)cc2Cl)[nH]1 [compound 18] |  | low micromolar range | 
O=C(O)c1cc(Br)ccc1NS(=O)(=O)c1ccc(Cl)cc1 [compound 25] | nor the sulfonamide (24 and 25) derivatives demonstrated significant growth inhibition |  | 
Oc1c(CN2CCCCC2)cc(Cl)c2cccnc12 [compound 5] |  | Met-AP inhibition | 
CC(C)(O/N=C(\C(=O)N[C@@H]1C(=O)N2C(C(=O)[O-])=C(C[n+]3ccccc3)CS[C@H]12)c1csc(N)n1)C(=O)O [ceftazidime] |  |  | MIC [4]: 1 to 6 µg/mL
O=[N+]([O-])c1cc(CN2CCSCC2)c(O)c2ncccc12 [compound 14] |  | decreased potency | 
NC[C@H]1O[C@H](O[C@H]2[C@H](O)[C@@H](O[C@H]3O[C@H](CO)[C@@H](O)[C@H](N)[C@H]3O)[C@H](N)C[C@@H]2N)[C@H](O)[C@@H](O)[C@@H]1O [Km, kanamycin] |  |  | killing of B. thailandensis [5]: complete killing; killing of B. pseudomallei (B. pseudomallei): complete killing
Nc1nnc(SCc2ccc(F)cc2)[nH]1 [compound 17] |  | low micromolar range | 
O=[N+]([O-])c1cc(CN2CCCC2)c(O)c2ncccc12 [compound 12] | potent growth inhibitors; also recorded: inhibition of cell growth |  | 
